PubChem BioAssay (NCI)
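Assay format: 96-well plates, 48-hour exposure. TGI: total growth inhibition.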

Experiments:
Test in all cases: DTP human tumour cell line panel, 48 h
LOX IMVI melanoma = tested on: LOX IMVI melanoma
SNB-75 CNS = tested on: SNB-75 CNS
SK-OV-3 ovarian = tested on: SK-OV-3 ovarian
SK-MEL-2 melanoma = tested on: SK-MEL-2 melanoma
NCI-H460 lung = tested on: NCI-H460 lung
U251 CNS = tested on: U251 CNS
NCI-H23 lung = tested on: NCI-H23 lung
A549 NSCLC = tested on: A549 NSCLC
NCI-H226 lung = tested on: NCI-H226 lung
SK-MEL-28 melanoma = tested on: SK-MEL-28 melanoma
SF-539 CNS = tested on: SF-539 CNS
UACC-257 melanoma = tested on: UACC-257 melanoma
SK-MEL-5 melanoma = tested on: SK-MEL-5 melanoma
SN12C renal = tested on: SN12C renal
OVCAR-8 ovarian = tested on: OVCAR-8 ovarian
MDA-MB-231 breast = tested on: MDA-MB-231 breast
MALME-3M melanoma = tested on: MALME-3M melanoma
HCT-116 colon = tested on: HCT-116 colon
OVCAR-5 ovarian = tested on: OVCAR-5 ovarian
HCT-15 colon = tested on: HCT-15 colon
OVCAR-3 ovarian = tested on: OVCAR-3 ovarian
RXF 393 renal = tested on: RXF 393 renal
MDA-N = tested on: MDA-N
786-0 renal = tested on: 786-0 renal
SW-620 colon = tested on: SW-620 colon
IGROV1 ovarian = tested on: IGROV1 ovarian
OVCAR-4 ovarian = tested on: OVCAR-4 ovarian
ACHN renal = tested on: ACHN renal
HL-60(TB) leukemia = tested on: HL-60(TB) leukemia
A498 renal = tested on: A498 renal
CCRF-CEM leukemia = tested on: CCRF-CEM leukemia
HCC-2998 colon = tested on: HCC-2998 colon
HOP-62 NSCLC = tested on: HOP-62 NSCLC
PC-3 prostate = tested on: PC-3 prostate
UO-31 renal = tested on: UO-31 renal
SNB-19 CNS = tested on: SNB-19 CNS
HOP-92 NSCLC = tested on: HOP-92 NSCLC
COLO 205 colon = tested on: COLO 205 colon
RPMI-8226 leukemia = tested on: RPMI-8226 leukemia
SF-295 CNS = tested on: SF-295 CNS
BT-549 breast = tested on: BT-549 breast
EKVX NSCLC = tested on: EKVX NSCLC
NCI-H522 lung = tested on: NCI-H522 lung
DU-145 prostate = tested on: DU-145 prostate
MOLT-4 leukemia = tested on: MOLT-4 leukemia
CAKI-1 renal = tested on: CAKI-1 renal
KM12 colon = tested on: KM12 colon
NCI/ADR-RES ovarian = tested on: NCI/ADR-RES ovarian
MDA-MB-435 = tested on: MDA-MB-435
HT29 colon = tested on: HT29 colon
MCF7 breast = tested on: MCF7 breast
M14 melanoma = tested on: M14 melanoma
UACC-62 melanoma = tested on: UACC-62 melanoma
HS 578T breast = tested on: HS 578T breast
SR leukemia = tested on: SR leukemia
SF-268 CNS = tested on: SF-268 CNS
K-562 leukemia = tested on: K-562 leukemia
TK-10 renal = tested on: TK-10 renal

Measured: TGI

CN1C(=O)C(O)CC1c1ccccc1C(F)(F)F (configuration not stated)
> 100 µM: LOX IMVI melanoma | SNB-75 CNS | SK-OV-3 ovarian | SK-MEL-2 melanoma | NCI-H460 lung | U251 CNS | NCI-H23 lung | A549 NSCLC | NCI-H226 lung | SK-MEL-28 melanoma | SF-539 CNS | UACC-257 melanoma | SK-MEL-5 melanoma | SN12C renal | OVCAR-8 ovarian | MDA-MB-231 breast | MALME-3M melanoma | HCT-116 colon | OVCAR-5 ovarian | HCT-15 colon | OVCAR-3 ovarian | RXF 393 renal | MDA-N | 786-0 renal | SW-620 colon | IGROV1 ovarian | OVCAR-4 ovarian | ACHN renal | HL-60(TB) leukemia | A498 renal | CCRF-CEM leukemia | HCC-2998 colon | HOP-62 NSCLC | PC-3 prostate | UO-31 renal | SNB-19 CNS | HOP-92 NSCLC | COLO 205 colon | RPMI-8226 leukemia | SF-295 CNS | BT-549 breast | EKVX NSCLC | NCI-H522 lung | DU-145 prostate | MOLT-4 leukemia | CAKI-1 renal | KM12 colon | NCI/ADR-RES ovarian | MDA-MB-435 | HT29 colon | MCF7 breast | M14 melanoma | UACC-62 melanoma

O=C1NNC2NC(=O)C3(NN2C1=O)c1ccccc1-c1ccccc13 (configuration not stated)
> 100 µM: HS 578T breast | LOX IMVI melanoma | SNB-75 CNS | SK-OV-3 ovarian | SK-MEL-2 melanoma | NCI-H460 lung | U251 CNS | NCI-H23 lung | A549 NSCLC | SR leukemia | NCI-H226 lung | SF-539 CNS | UACC-257 melanoma | SK-MEL-5 melanoma | SN12C renal | OVCAR-8 ovarian | MDA-MB-231 breast | MALME-3M melanoma | HCT-116 colon | OVCAR-5 ovarian | HCT-15 colon | OVCAR-3 ovarian | RXF 393 renal | MDA-N | 786-0 renal | SF-268 CNS | SW-620 colon | IGROV1 ovarian | OVCAR-4 ovarian | ACHN renal | HL-60(TB) leukemia | A498 renal | CCRF-CEM leukemia | HCC-2998 colon | HOP-62 NSCLC | PC-3 prostate | K-562 leukemia | UO-31 renal | SNB-19 CNS | TK-10 renal | HOP-92 NSCLC | COLO 205 colon | SF-295 CNS | BT-549 breast | EKVX NSCLC | NCI-H522 lung | DU-145 prostate | CAKI-1 renal | NCI/ADR-RES ovarian | MDA-MB-435 | HT29 colon | MCF7 breast | M14 melanoma | UACC-62 melanoma
